{
  "source": "patent US8476005B2",
  "about": "“Microfluidic embedded polymer NEMS force sensors” (California Institute of Technology, priority 2008, dated 2013)",
  "key": {"[1]": {"system": "cells", "assay": "Surface chemistry Petri dish experiments: cell adherence and spreading on treated surface", "type": "cell-based", "details": "surface treated with this agent only; polymer surface with gold pads", "description": "FIGS. 3a-3d show results from surface chemistry Petri dish experiments. […] FIG. 3c-3d show results from complete surface chemistry process (SAM, Pluronics and fibronectin): cells are well spread on the gold and absent from the polymer A force sensor comprising a polymer surface with gold pads was used. The cells were to be attached to the pads and not to the polymer. At the beginning, both the pad and the polymer surfaces were hydrophobic, and water contact angle was about 80° on both. A self assembled monolayer was applied to the gold pads using thiol based chemistry. […] Monolayers were deposited from ethanol solutions […]. The monolayers left the gold surface hydrophilic, and water contact angle was about 25°. The polymer regions were coated with Pluronics […]). The surfaces were treated to Pluronics diluted in PBS (phosphate buffer solution), 0.02% to 1% by weight for 20-80 min. […] Pluronics left the surface hydrophilic. The gold regions were coated with Fibronectin. The surfaces were treated with fibronectin diluted in PBS, 5 ug/mL to 50 ug/mL for 20 min-4 hrs. […] FIGS. 3(c) and 3(d) show results from complete surface chemistry process (SAM, Pluronics and fibronectin), wherein cells were well spread on the gold and absent from the polymer. Thus, modifying surface chemistry allowed control of the cell adherence and/or spreading."}, "[2]": {"system": "individual fibroblasts (NIG-3T3)", "assay": "Single-cell force response to a perturbing agent, measured with polymer NEMS force sensor", "type": "cell-based", "description": "FIGS. 2a-2i illustrate NEMS-enabled single-cell force measurements with high temporal and force resolution. FIGS. 2a-2b provide optical images showing a microfluidics encapsulated force sensor, and FIG. 2c provides an electron micrograph thereof. […] The force data was acquired with a force resolution of 200 pN and a time resolution of 100 ms—25× and 300×, respectively, better than prior state of the art. FIGS. 2f-2h provide plots that show force signatures of two molecular-mechanical processes: small force oscillations, roughly 400 pN peak-to-peak, with a frequency that is monotonically dependent on the force being exerted by the lamellipodium shown in FIG. 2f, with FIG. 2g illustrating the linearity of frequency dependence.\nNEMS force sensors can be used in phenotypic screening. […] Cells can then be exposed to one or more potential reagents, such as a pharmaceutical reagent, such as a drug, introduced in a carefully controlled manner using the integrated microfluidics, and the effects of the reagent(s) on the cells, such as the force exerted by the cells, is monitored. […]\nThe reagent can cause the cell to change in its physiology, such as conformation and/or structure, or change its force response to the reagent. […] The lengthening of the wire can then be detected. […]"}},
  "data": [
    {"molecule": "fibronectin", "values": [
      {"measurement": "cell attachment and spreading on surface", "setting": "[1]", "result": "cells were spread everywhere"}
    ]},
    {"molecule": "C=C1[C@@H](C)[C@H]2[C@H](Cc3ccccc3)NC(=O)[C@]23[C@H](OC(C)=O)/C=C/[C@@](C)(O)C(=O)[C@@H](C)C/C=C/[C@H]3[C@@H]1O", "note": "[cytochalasin D, Cytochalasin D]", "values": [
      {"measurement": "large, stable, quantized force steps", "setting": "[2]; cell's cytoskeleton perturbed with cytochalasin D and allowed to recover in growth media", "result": "~1", "unit": "nN"},
      {"measurement": "small force oscillations, peak-to-peak", "setting": "[2]; lamellipodium perturbed with cytochalasin D and recovering in growth media, frequency monotonically dependent on force exerted", "result": "roughly 400 pN"}
    ]}
  ]
}
